According to patent publication US4332794A, “6"-Deoxydibekacin, 4",6"-dideoxydibekacin and 1-N-aminoacyl derivatives thereof, and the production of these new compounds” (Zaidan Hojin Biseibutsu Kagaku Kenkyu Kai, priority 1979, dated 1982):
Values after ≈ are worked out from the molar mass of the structure shown. Like-named read-outs stand apart in the source and are kept apart here.

Experiments:
Format in all cases: cell-based
[1] = test system: Escherichia coli K-12 R 388; test: MIC, serial dilution on nutrient agar; settings: K12R388, 18 h
[2] = test system: Pseudomonas aeruginosa PST1; test: MIC, serial dilution on nutrient agar
[3] = test system: Corynebacterium bovis 1810; test: MIC, serial dilution on nutrient agar
[4] = test system: Escherichia coli JR66/W677; test: MIC, serial dilution on nutrient agar
[5] = test system: Staphylococcus epidermidis 109; test: MIC, serial dilution on nutrient agar; settings: Staphylococcus epidermidis, 109, 18 h
Escherichia coli NIHJ = test: MIC, serial dilution on nutrient agar; settings: 18 h
Serratia marcescens = test: MIC, serial dilution on nutrient agar; settings: 37° C., 18 hours
Protocol: (§1) The minimum inhibitory concentrations (mcg/ml) of 6"-deoxydibekacin (abbreviated as 6"-DDKB), 4",6"-dideoxydibekacin (abbreviated as 4",6"-DDKB), 1-N-(L-4-amino-2-hydroxybutyryl)-6"-deoxydibekacin (abbreviated as AHB-6"-DDKB) and 1-N-(L-4-amino-2-hydroxybutyryl)-4",6"-dideoxydibekacin (abbreviated as AHB-4",6"-DDKB) of this invention against various microorganisms were determined according to serial dilution method on a nutrient agar medium at 37° C., the estimation being made after 18 hours incubation. For comparison purpose, the minimum inhibitory concentrations of dibekacin (abbreviated as DKB) were also determined in the same manner as stated above.

Providencia 2991 = test: MIC, serial dilution on nutrient agar; settings: 37° C., 18 hours
Protocol: as §1

[6] = test system: Pseudomonas aeruginosa 21-75; test: MIC, serial dilution on nutrient agar; settings: 2175, 37° C., 18 hours
Protocol: as §1

[7] = test system: Escherichia coli K-12 C 600R/35; test: MIC, serial dilution on nutrient agar; settings: K12C600R/35, 37° C., 18 hours
Protocol: as §1

[8] = test system: Escherichia coli K-12 ML 1630; test: MIC, serial dilution on nutrient agar; settings: K12ML1630, 37° C., 18 hours
Protocol: as §1

[9] = test system: Klebsiella pneumoniae PCI 602; test: MIC, serial dilution on nutrient agar; settings: PCI602, 37° C., 18 hours
Protocol: as §1

Serratia SOU = test: MIC, serial dilution on nutrient agar; settings: 37° C., 18 hours
Protocol: as §1

[10] = test system: Pseudomonas maltophilia GN907; test: MIC, serial dilution on nutrient agar; settings: Stenotrophomonas maltophilia, 37° C., 18 hours
Protocol: as §1

Shigella sonnei JS11746 = test: MIC, serial dilution on nutrient agar; settings: 37° C., 18 hours
Protocol: as §1

[11] = test system: Staphylococcus aureus 209P; test: MIC, serial dilution on nutrient agar; settings: 37° C., 18 hours
Protocol: as §1

[12] = test system: Escherichia coli K-12 J5B 11-2; test: MIC, serial dilution on nutrient agar; settings: K12J5B112, 37° C., 18 hours
Protocol: as §1

[13] = test system: Escherichia coli K-12 ML 1629; test: MIC, serial dilution on nutrient agar; settings: K12ML1629, 37° C., 18 hours
Protocol: as §1

[14] = test system: Pseudomonas aeruginosa GN315; test: MIC, serial dilution on nutrient agar; settings: 37° C., 18 hours
Protocol: as §1

Serratia 4 = test: MIC, serial dilution on nutrient agar; settings: 37° C., 18 hours
Protocol: as §1

Proteus vulgaris OX19 = test: MIC, serial dilution on nutrient agar; settings: 37° C., 18 hours
Protocol: as §1

[15] = test system: Shigella flexneri 4b JS11811; test: MIC, serial dilution on nutrient agar; settings: 4BJS11811, 37° C., 18 hours
Protocol: as §1

[16] = test system: Shigella dysenteriae JS11910; test: MIC, serial dilution on nutrient agar; settings: JS11910, 18 h
[17] = test system: Pseudomonas aeruginosa K-Ps102; test: MIC, serial dilution on nutrient agar; settings: KPS102, nutrient agar, 37° C., 18 hours, read-out: MIC
[18] = test system: Pseudomonas aeruginosa ROS134/PU21; test: microbe, parasite or virus in culture; settings: ROS134/PU21, 18 h
[19] = test system: Bacillus cereus ATCC 10702; test: MIC, serial dilution on nutrient agar
[20] = test system: Mycobacterium smegmatis ATCC 607; test: MIC, serial dilution on nutrient agar; settings: Mycolicibacterium smegmatis, ATCC607, 18 h
[21] = test system: Pseudomonas aeruginosa H9; test: MIC, serial dilution on nutrient agar; settings: H9, 18 h
Providencia Pv 16 = test: MIC, serial dilution on nutrient agar; settings: PV16, nutrient agar, 37° C., 18 hours, read-out: MIC
Escherichia coli JR255 = test: microbe, parasite or virus in culture; settings: JR255, 18 h
[22] = test system: Pseudomonas aeruginosa A3; test: MIC, serial dilution on nutrient agar
Escherichia coli W677 = test: MIC, serial dilution on nutrient agar; settings: W677, 18 h
Escherichia coli K-12 R5 = test: microbe, parasite or virus in culture; settings: K12R5, 18 h
[23] = test system: Staphylococcus aureus Smith; test: MIC, serial dilution on nutrient agar; settings: 37° C., 18 hours
[24] = test system: Escherichia coli K-12 LA 290 R64; test: MIC, serial dilution on nutrient agar; settings: K12LA290R64, 18 h
Escherichia coli K-12 = test: MIC, serial dilution on nutrient agar; settings: K12, 18 h
[25] = test system: Pseudomonas aeruginosa No. 12; test: MIC, serial dilution on nutrient agar; settings: NO.12, nutrient agar, 37° C., 18 hours, read-out: MIC
Bacillus anthracis = test: microbe, parasite or virus in culture; settings: 18 h
Sarcina lutea PCI 1001 = test: MIC, serial dilution on nutrient agar; settings: Micrococcus luteus

Compound | MIC [1] [µg/mL] | MIC [5] [µg/mL] | MIC (Escherichia coli NIHJ) [µg/mL] | MIC (Serratia marcescens) [µg/mL] | MIC (Providencia 2991) [µg/mL] | MIC [6] [µg/mL] | MIC [7] [µg/mL] | MIC [8] [µg/mL] | MIC [9] [µg/mL] | MIC (Serratia SOU) [µg/mL] | MIC [10] [µg/mL] | MIC (Shigella sonnei JS11746) [µg/mL] | MIC [11] [µg/mL] | MIC [12] [µg/mL] | MIC [13] [µg/mL] | MIC [14] [µg/mL] | MIC (Serratia 4) [µg/mL] | MIC (Proteus vulgaris OX19) [µg/mL] | MIC [15] [µg/mL] | MIC [16] [µg/mL] | other results
C[C@@H]1C[C@H](N)[C@@H](O)[C@@H](O[C@@H]2[C@@H](O)[C@H](O[C@H]3O[C@H](CN)CC[C@H]3N)[C@@H](N)C[C@H]2NC(=O)[C@@H](O)CCN)O1 [AHB-4",6"-DDKB, 1-N-(L-4-amino-2-hydroxybutyryl)-4",6"-dideoxydibekacin] | 0.78 (≈ 1.5 µM) | 1.56 (≈ 3 µM) | 1.56 (≈ 3 µM) | 100 (≈ 192 µM) | 100 (≈ 192 µM) | > 100 | 0.78 (≈ 1.5 µM) | 1.56 (≈ 3 µM) | 0.78 (≈ 1.5 µM) | > 100 | > 100 | 3.13 (≈ 6.01 µM) | 0.78 (≈ 1.5 µM) | 1.56 (≈ 3 µM) | 1.56 (≈ 3 µM) | 100 (≈ 192 µM) | 6.25 (≈ 12 µM) | 0.39 (≈ 0.749 µM) | 6.25 (≈ 12 µM) | 3.13 (≈ 6.01 µM) | MIC ([2]; PST1, nutrient agar, 37° C., 18 hours, read-out: MIC): 25 µg/mL (≈ 48 µM); MIC ([3]; Corynebacterium bovis, 1810, 18 h): 6.25 µg/mL (≈ 12 µM); MIC ([4]; JR66/W677, 18 h): 3.13 µg/mL (≈ 6.01 µM); MIC [17]: 12.5 µg/mL (≈ 24 µM); MIC [18]: > 100 µg/mL; MIC ([19]; ATCC10702, 18 h): 1.56 µg/mL (≈ 3 µM); MIC [20]: 0.39 µg/mL (≈ 0.749 µM); MIC [21]: 6.25 µg/mL (≈ 12 µM); MIC (Providencia Pv 16): 25 µg/mL (≈ 48 µM); MIC (Escherichia coli JR255): 1.56 µg/mL (≈ 3 µM); MIC ([22]; A3, 18 h): 1.56 µg/mL (≈ 3 µM); MIC (Escherichia coli W677): 1.56 µg/mL (≈ 3 µM); MIC (Escherichia coli K-12 R5): 100 µg/mL (≈ 192 µM); MIC [23]: < 0.2 µg/mL; MIC [24]: 0.78 µg/mL (≈ 1.5 µM); MIC (Escherichia coli K-12): 1.56 µg/mL (≈ 3 µM); MIC [25]: 12.5 µg/mL (≈ 24 µM); MIC (Bacillus anthracis): < 0.2 µg/mL; MIC (Sarcina lutea PCI 1001; PCI1001, 18 h): 3.13 µg/mL (≈ 6.01 µM)
C[C@H]1O[C@H](O[C@@H]2[C@@H](O)[C@H](O[C@H]3O[C@H](CN)CC[C@H]3N)[C@@H](N)C[C@H]2NC(=O)[C@@H](O)CCN)[C@H](O)[C@@H](N)[C@@H]1O [AHB-6"-DDKB, 1-N-(L-4-amino-2-hydroxybutyryl)-6"-deoxydibekacin] | 0.78 (≈ 1.45 µM) | 1.56 (≈ 2.91 µM) | 1.56 (≈ 2.91 µM) | 50 (≈ 93.2 µM) | 100 (≈ 186 µM) | 100 (≈ 186 µM) | 1.56 (≈ 2.91 µM) | 3.13 (≈ 5.83 µM) | 1.56 (≈ 2.91 µM) | 100 (≈ 186 µM) | > 100 | 6.25 (≈ 11.6 µM) | 1.56 (≈ 2.91 µM) | 1.56 (≈ 2.91 µM) | 1.56 (≈ 2.91 µM) | 50 (≈ 93.2 µM) | 6.25 (≈ 11.6 µM) | 0.78 (≈ 1.45 µM) | 6.25 (≈ 11.6 µM) | 6.25 (≈ 11.6 µM) | MIC ([2]; PST1, 18 h): 50 µg/mL (≈ 93.2 µM); MIC ([3]; Corynebacterium bovis, 1810, nutrient agar, 37° C., 18 hours, read-out: MIC): 3.13 µg/mL (≈ 5.83 µM); MIC ([4]; JR66/W677, nutrient agar, 37° C., 18 hours, read-out: MIC): 3.13 µg/mL (≈ 5.83 µM); MIC [17]: 12.5 µg/mL (≈ 23.3 µM); MIC [18]: > 100 µg/mL; MIC ([19]; ATCC10702, nutrient agar, 37° C., 18 hours, read-out: MIC): 3.13 µg/mL (≈ 5.83 µM); MIC [20]: 0.39 µg/mL (≈ 0.727 µM); MIC [21]: 6.25 µg/mL (≈ 11.6 µM); MIC (Providencia Pv 16): 25 µg/mL (≈ 46.6 µM); MIC (Escherichia coli JR255): 1.56 µg/mL (≈ 2.91 µM); MIC ([22]; A3, nutrient agar, 37° C., 18 hours, read-out: MIC): 3.13 µg/mL (≈ 5.83 µM); MIC (Escherichia coli W677): 1.56 µg/mL (≈ 2.91 µM); MIC (Escherichia coli K-12 R5): 50 µg/mL (≈ 93.2 µM); MIC [23]: < 0.2 µg/mL; MIC [24]: 1.56 µg/mL (≈ 2.91 µM); MIC (Escherichia coli K-12): 1.56 µg/mL (≈ 2.91 µM); MIC [25]: 25 µg/mL (≈ 46.6 µM); MIC (Bacillus anthracis): 0.2 µg/mL (≈ 0.373 µM); MIC (Sarcina lutea PCI 1001; PCI1001, nutrient agar, 37° C., 18 hours, read-out: MIC): 3.13 µg/mL (≈ 5.83 µM)
